Values quoted from earlier work as cited in patent US8173570B2, “Hydroconversion processes employing multi-metallic catalysts and method for making thereof” (Chevron U.S.A. Inc., priority 2007, dated 2012).

Test system: rats
Conditions: acute toxicity, as single oral dose to rats (definition b56-b57)

## O=CC(=O)O [glyoxylic]
  LD50: 3000 mg/kg
